Measurements as given in patent publication US6169074A, “Peptide inhibitors of neurotransmitter secretion by neuronal cells” (The Regents of the University of California, priority 1997, dated 2001).

Tests used:
[1] = tested on: catecholamine release from permeabilized bovine chromaffin cells; assay type: cell-based; details: for IC50: read-out: concentration reaching 50% inhibitory activity (inhibition of Ca2+ dependent secretion); for effect on Ca2+ dependent (Ca2+-triggered) secretion: peptides at 100 μM concentration, FIG. 7A
mouse neuron = test: Mouse neuron inhibition assay (Mehta, et al., 1996); assay type: cell-based
Procedure: ii. 47% at 2 μM; 87% at 20 μM, as measured in the mouse neuron inhibition assay described in, for example, Mehta, et al., Proc. Natl. Acad. Sci. USA, 93:10471-10476, 1996 (incorporated herein for purposes of reference).

Substance | IC50 [1] [µM] | effect on Ca2+ dependent (Ca2+-triggered) secretion [1] | further results
170-EIDTQNRQIDRIMEKADSNK-189 [ESUP/E20h] | 1.8 | – | –
181-IMEKADSNKTRIDEANQRATKMLGSG-206 [ESUP/E26h] | 0.25 | – | –
187-SNKTRIDEANQRATKMLGSG-206 [ESUP/A20h, 20-mer peptide encompassing the C-terminal region of SNAP-25 (aa 187-206)] | 12 | – | Inhibitory Activity (mouse neuron; at 2 μM peptide): 47%; Inhibitory Activity (mouse neuron; at 20 μM peptide): 87%; Inhibitory Activity ([1]; at 100 μM peptide, bovine chromaffin cells): 65%
MLDEQGEQLER [SNAP-25(49-59), reference compound] | – | did not affect | –
TDSSGREMIKANKQLANGTR [ESUP/20Ah^RD, control peptide with the same amino acid composition as ESUP/A20h but in random order, reference compound] | – | no effect | –
